Measurements reported in patent EP2918282A1, “Pharmaceutical composition for the treatment of virus diseases, such as flu” (OOO "CytoNIR", priority 2014, dated 2015).

Test system: Grippevirus A/Vladivostok/2/09 (H1N1)
Experiment: Survival of mice infected with a lethal dose of influenza virus, peroral treatment for 5 days
Assay type: in vivo, Mäuse
Settings: virus strain resistant to Oseltamyvir; 30 mg/kg
Text: Die Wirksamkeit des Mittels wurde an einem Modell der Überlebensfähigkeit von angesteckten Versuchstieren geprüft. Die Versuchstiere wurden mit einer tödlichen Dosis des Grippevirus A/Vladivostok/2/09 (H1N1) angesteckt. Während der Forschung wurde das erfindungsgemäße Mittel 5 Tage lang peroral verabreicht.
Als Versuchstiere wurden weiße männliche Auszucht-Mäuse mit einem Körpergewicht von 16 - 18 g aus der Aufzuchtstation Rappolovo der Russischen Akademie der medizinischen Wissenschaften verwendet. Vor der Prüfung wurden die Versuchstiere einer Quarantäne in einem Vivarium im Laufe einer Woche unterzogen. Die Versuchstiere wurden unter genormten Klima-Bedingungen mit ausgewogener Fütterung gehalten. Jede Gruppe enthielt je 30 Versuchstiere.
Um eine versuchsmäßige Grippe-Infektion zu simulieren, wurde ein bestimmter Virusstamm eingesetzt. Die Versuchstiere wurden mit dem A/Vladivostok/2/09 (H1N1)-Virus in Mengen von 1 und 10 DL50 intranasal angesteckt.
Die Behandlung der angesteckten Mäuse wurde 24 Stunden nach der Ansteckung begonnen. Die Präparate wurden intragastrisch mittels einer Sonde verabreicht. Bei diesen Präparaten handelte es sich um eine Lösung in einer physiologischen Kochsalzlösung. Die Dosis des Arzneimittels wurde pro ein kg des Körpergewichts des Tieres berechnet. Die Behandlung wurde im Laufe von 5 Tagen vorgenommen. […]

Structure (SMILES): CCOC(=O)C1=C[C@@H](OC(CC)CC)[C@H](NC(C)=O)[C@@H](N)C1 [Tamiflu, Oseltamyvir]
- Schutzsteigerung: keine zuverlässige Schutzsteigerung
